Results published in patent US20070269531A1, “Non-Steroid Anti-Inflammatory Agents with Vitamins, Minerals, and Dietary Supplements for the Prevention and Treatment of Primary, Secondary and Tertiary Cancer” (priority 2004, published 2007).
Values joined by “and” are separate entries in the source; they are usually repeats but may differ in a detail not shown here. Identical values can stand only once. Like-named read-outs stand apart in the source and are kept apart here.

Columns and labels:
[1] = test system: MC-26 tumor; conditions: for overall survival rate: day 50
Experimental: Starting on day 7 after tumor cell inoculation, mice were randomly divided into eight groups as follow:
Group 1: control; control chow; 0.9% NaCl injected intraperitoneally (IP) on days 9, 11, 15, 18, 23, and 28; and 5% IP glucose on days 8, 12, 15, 19, 22, and 25.
Group 4: irinotecan alone; control chow; irinotecan 30 mg/kg on days 8, 12, 15, 19, 22, and 25; and 0.9% NaCl on days 9, 11, 15, 18, 23, and 28.
The date and number of animal in each group were recorded for survival analysis.

[2] = meta-analysis (Lewis et al., 2002); cited from earlier work
[3] = test system: CD31 positive microvessels; assay: CD31 microvessel immunohistochemistry of tumor sections; assay type: in vivo, mouse; conditions: P=0.059
Experimental: To assess anigiogenesis in tumor tissues, frozen sections were made and microvessels were stained with anti-mouse CD31 mnonocolonal antibodies (BD transduction laboratories). The specimens were incubated with secondary antibody for 1 h at 37° C. and stained by the avidin-biotin peroxide complex (ABC) method using an ABC staining kit (Santa Cruz Biotech, Santa Cruz, Calif.). They were visualized by 3,3′-diammobenzidme (DAB) and counlterstained with hematoxyhn.

[4] = test system: HT-29 cells PGE2 levels; assay: Prostaglandin E2 ELISA, HT-29 conditioned medium; assay type: cell-based, human; conditions: 24 h
Experimental: (§1) The transplantable mouse CRC cell line MC-26 (Singh et al., 1986) was obtained from Dr. K. K. Tanabe (Massachusetts General Hospital, Boston, Mass.), and the human colorectal adenocarcinoma cell line HT 29 was obtained from ATCC. MC-26 cells and HT-29 were maintained in Dulbecco's modified Eagle's medium (DMEM; Life Technologies, Inc, Gaithersburg, Md.) and McCoy's 5A medium, respectively, supplemented with 10% fetal calf sertum plus antibiotics at 37° C. in a humidified atmosphere of 95% air/5% C02. Human umbilical vein endothelial cells (HUVECs) was purchased from Canibrex (Walkersville, Md.) and maintained in EGM-2 medium (Cambrex).
(§2) Prostaglandin E2 (PGE2), the major metabolite of arachidonic acid metabolism, was measured by ELISA (Cayman Chemical, Ami Arbor, Mich.), using conditional cell culture medium, according to the protocol provided by manufacturer. Measurements were made in triplicate in separate experiments.

[5] = cited from earlier work
[6] = test system: HUVECs; assay: In vitro angiogenesis (tube formation) assay; assay type: cell-based, human; conditions: 1000 μM
Experimental: An in vitro anigiogenesis assay was performed according to the protocol provided by manufacturer (Chemicon, Temecula, Calif.) and described previously ([…] et al., 2004; […] et al., 2004). […] Microscopic digital images were taken, and cumulative tube length was measured using SpotTM3.5.6.

[7] = test system: MC-26 cells; assay: In vitro cell proliferation assay (MTT), MC-26; assay type: cell-based, mouse; conditions: 72 h
Experimental: as §1
In Vitro cell proliferation was assessed using a CellTiter 96®AQ One Solution Cell Proliferation Assay kit (Promega). 1-3×10^4 cells/ml were plated in 96-well microtiter plates and incubated overnight. […]

[8] = test system: HUVEC; assay: HUVEC cell proliferation (MTT); assay type: cell-based, human; conditions: 1000 μM, 24 h
Experimental: as §1
(§3) In Vitro cell proliferation was assessed using a CellTiter 96®AQ One Solution Cell Proliferation Assay kit (Promega). 1-3×10^4 cells/ml were plated in 96-well microtiter plates and incubated overnight. […] 20 μl of MTS tetrazolium solution were added to each well, and the cells were further incubated at 37° C. for 1 h, at which time the reactions were stopped by the addition of 10% SDS. The absorbance at wavelength 490 nm was measured using an EX800 microplate reader (Bio-Tek, Highland, Wis.).

[9] = test system: HT-29 tumor; assay: HT-29 human xenograft CRC model in nude mice; conditions: throughout the period of investigation
[10] = Plasma ibuprofen concentration in mice fed ibuprofen chow; assay type: in vivo, mouse; conditions: mice fed chow containing 1360 mg/kg; blood on days 7 and 14
Experimental: Ibuprofen was purchased from Sigma, and pellet-formed chow containing ibuprofen was prepared by Harlan Teklad (Madison, Wis.). Blood was drawn on day 7 and 14 by tail bleeding, and serum was separated from the whole blood and frozen at −70° C. until analysis.
The plasma samples were analyzed by a quantified liquid chromatography-tandem mass spectrometry (LC/MS/MS) method. Sample preparation was performed using protein precipitation.
A […] aliquot of internal standard working solution (3000 ng/mL of Phenacetin I.S. in acetonitrile) was added to 25 μL of plasma. Each sample was then vortexed and centrifuged for 15 min at a speed of 13,000 rpm at 4° C.
After centrifugation, 150 μL of the supernatant was transferred into an HPLC vial, and aliquots of 5 μL were injected using a Perkin Elmer 200 Series autosampler (Perkin Elmer: Norwalk Conn.). The loading and analytical columns were a Zorbax Extend C18 (4.6×12.5 mm, 5 μdp; Agilent Technologies: Palo Alto, Calif.) and a Waters Xterra C 18 (3.9×20 mm, 3.5 μdp; Waters Corporation: Milfaird, Mass.), respectively. […] The column effluent was analyzed by selected reaction monitoring using a triple quadruple mass spectrometer (Micromass Quattro Ultima; Manchester, UK) equipped with an electrospray ion source operating in negative ion mode.

[11] = test system: MC-26 tumor; assay: Subcutaneous MC-26 tumor model, single agent
[12] = test system: MC-26 cell PGE2 levels; assay: Prostaglandin E2 ELISA, MC-26 conditioned medium; assay type: cell-based, mouse; conditions: MC-26 cells, 1000 μM, 24 h
Experimental: as §1, §2

[13] = test system: HT-29 cells; assay: In vitro cell proliferation assay (MTT), HT-29; assay type: cell-based, human; conditions: HT-29, 1000 μM, 72 h
Experimental: as §1, §3

[14] = test system: MC-26 liver metastasis; assay: Experimental liver metastasis model (subsplenic MC-26 injection); assay type: in vivo, mouse; conditions: 1360 mg/kg chow for 14 days
Experimental: The incidence and extent of liver metastasis were then recorded.

[15] = Gross necroscopic examination for GI mucosal injury; assay type: in vivo, mouse; conditions: mice consuming chow containing ibuprofen

SMILES: O=c1[nH]cc(F)c(=O)[nH]1 [5-FU, Fluorouracil]
- overall survival rate ([1]; 5-FU given with leucovorin): 30%
- tumor volume ([1]; treatment day 7 to 28, 5-FU given with leucovorin, control 1491.3±862): 499±234 mm^3

SMILES: CCc1c2c(nc3ccc(OC(=O)N4CCC(N5CCCCC5)CC4)cc13)-c1cc3c(c(=O)n1C2)COC(=O)[C@]3(O)CC [CPT-11, Irinotecan]
- average body weight ([1]; day 28, average over the named groups, control 19.65±1.24): 23.1 ± 1.72 g
- overall survival rate ([1]; 5-FU given with leucovorin): 80%
- survival compared to control mice and other regimens ([1]; mouse, in vivo): significantly prolonged

SMILES: O=C(O)Cc1ccccc1Nc1c(Cl)cccc1Cl [diclofenac]
- odds ratio, serious upper GI bleeding [2]: 4.9

SMILES: CC(C)Cc1ccc(C(C)C(=O)O)cc1 (stereo not drawn) [ibuprofen]
- reduction in number of microvessels [3]: ~30%
- PGE2 levels diminished compared to control [4]: 81.1%
- PGE2 level ([4]; control 95.6 pg/mL): 18 pg/mL
- plasma ibuprofen peak concentration ([5]; 300 mg capsule, fasting humans (Halsas et al., 1999)): approximately 27,000 ng/ml
- peak plasma concentration (Cmax) ([5]; healthy humans, long-term high-dose 14 mg/kg): 65,000 ng/ml
- Cmax ([5]; healthy humans, low dose 2.6 mg/kg): 15,800 ng/ml
- Cmax ([5]; healthy humans, moderate dose 7 mg/kg): 34,000 ng/ml
- peak plasma ibuprofen concentration ([5]; single dose of 300 mg, humans (Halsas et al., 1999)): ≥ 27,000 ng/mil
- reduction in tube length ([6]; 6 h): 40%
- tube length ([6]; 6 h, control 155.4±21.3): 94.0±24.9 μm
- reduction in tube length ([6]; 24 h): 88%
- tube length ([6]; 24 h, control 76.2±13.5): 9.40±6.95 μm
- decrease in MC-26 cell proliferation ([7]; 125 μM): 1.3%
- decrease in MC-26 cell proliferation ([7]; 250 μM): 5.8%
- decrease in MC-26 cell proliferation ([7]; 500 μM): 11.3%
- decrease in MC-26 cell proliferation ([7]; 1000 μM): 39.8%
- MTT levels diminished compared to control [8]: approximately 80%
- body weight vs control [9]: no significant difference in body weight
- plasma ibuprofen concentration [10]: ~18,760±7,270 ng/ml and ~20,978±5,966 ng/ml
- tumor growth inhibited ([11]; chow containing 1360 ppm, summary over mouse and human CRC models): 40-82%
- average body weight ([11]; day 21, control 20.3±2.6): 24.1 ± 1.73 g
- PGE2 levels diminished compared to control [12]: 70.1%
- PGE2 level ([12]; control 268.5): 80.0 pg/mL
- MTT levels diminished compared to control [13]: 26.7%
- liver metastases vs control [14]: more prevalent and larger in the control group
- liver metastases vs control ([14]; listed as IB): Fewer liver metastases
- gastroduodenal / GI mucosal injury [15]: no evidence of gastroduodenal mucosal injury
- gastroduodenal / GI mucosal injury ([15]; listed as Ibuprofen): No GI mucosal injury

SMILES: COc1ccc2cc([C@H](C)C(=O)O)ccc2c1 [naproxen]
- odds ratio, serious upper GI bleeding [2]: 9.1

SMILES: CN1C(C(=O)Nc2ccccn2)=C(O)c2ccccc2S1(=O)=O [piroxicam]
- odds ratio, serious upper GI bleeding [2]: 13.1
